Patent publication US6627630B1, “Condensed pyridazine derivatives, their production and use” (Takeda Chemical Industries, Ltd., priority 1998, dated 2003)
Structures can show the parent of a compound that is named as a salt.

| Compound | melting point [°C] |
| --- | --- |
| c1ccc(C(OC2CCN(CCCOc3ccc4ncnn4n3)CC2)c2ccccc2)cc1 (as salt: fumarate) [Example 2A, 6-[3-[4-(Diphenylmethoxy)piperidino]propoxy][1,2,4]triazolo[1,5-b]pyridazine Fumarate] | 157 to 159 |
| Cc1cc2ncnn2nc1OCCCCCCN1CCN(C(c2ccccc2)c2ccccc2)CC1 (as salt: hydrochloride) [Example 51A, 6-[6-[4-(Diphenylmethyl)-1-piperazinyl]hexyloxy]-7-methyl[1,2,4]triazolo[1,5-b]pyridazine Dihydrochloride] | 170 to 172 |
| CC(C)c1cc2ncnn2nc1SCCOCCN1CCN(C(c2ccccc2)c2ccccc2)CC1 (as salt: hydrochloride) [Example 59A, 6-[2-[2-[4-(Diphenylmethyl)-1-piperazinyl]ethoxy]ethylthio]-7-isopropyl[1,2,4]triazolo[1,5-b]pyridazine Dihydrochloride] | 143 to 145 |
| CC(C)(C)c1cc2ncnn2nc1OCCOCCN1CCN(C(c2ccccc2)c2ccccc2)CC1 (as salt: hydrochloride) [Example 62A, 7-t-Butyl-6-[2-[2-[4-(Diphenylmethyl)-1-piperazinyl]ethoxy]ethoxy][1,2,4]triazolo[1,5-b]pyridazine Dihydrochloride] | 150 to 152 |
| CC(C)(C(=O)O)c1cn2nc(NCCCN3CCC(OC(c4ccccc4)c4ccccc4)CC3)ccc2n1.O.O (hydrate or solvate) [Example 135A, 2-[6-[3-[4-(Diphenylmethoxy)piperidino]propylamino]imidazo[1,2-b]pyridazin-2-yl)-2-methylpropionic Acid Dihydrate] | 203 to 205 |
| c1ccc(C(c2ccccc2)N2CCN(CCCNc3ccc4ncnn4n3)CC2)cc1 [Example 5A, 6-[3-[4-(Diphenylmethyl)-1-piperazinyl]propylamino][1,2,4]triazolo[1,5-b]pyridazine] | 139 to 140 |
| c1ccc(C(OC2CCN(CCCNc3ccc4ncnn4n3)CC2)c2ccccc2)cc1 [Example 6A, 6-[3-[4-(Diphenylmethoxy)piperidino]propylamino][1,2,4]triazolo[1,5-b]pyridazine] | 136 to 138 |
| CC(C)c1cc2ncnn2nc1SCCCN1CCN(C(c2ccccc2)c2ccccc2)CC1 [Example 9A, 6-[3-[4-(Diphenylmethyl)-1-piperazinyl]propylthio]-7-isopropyl[1,2,4]triazolo[1,5-b]pyridazine] | 137 to 139 |
| c1ccc(C(OC2CCN(c3ccc4ncnn4n3)CC2)c2ccccc2)cc1 [Example 11A, 6-[4-(Diphenylmethoxy)piperidino][1,2,4]triazolo[1,5-b]pyridazine] | 137 to 139 |
| c1ccc(C(OC2CCN(CCCCNc3ccc4ncnn4n3)CC2)c2ccccc2)cc1 [Example 12A, 6-[4-[4-(Diphenylmethoxy)piperidino]butylamino][1,2,4]triazolo[1,5-b]pyridazine] | 102 to 104 |
| c1ccc(C(OC2CCN(CCNc3ccc4ncnn4n3)CC2)c2ccccc2)cc1 [Example 13A, 6-[2-[4-(Diphenylmethoxy)piperidino]ethylamino][1,2,4]triazolo[1,5-b]pyridazine] | 152 to 154 |
| CC(C)(C)c1cc2ncnn2nc1OCCN1CCC(OC(c2ccccc2)c2ccccc2)CC1 [Example 15A, 7-t-Butyl-6-[2-[4-(Diphenylmethoxy)piperidino]ethoxy][1,2,4]triazolo[1,5-b]pyridazine] | 133 to 135 |
| OC(COc1ccc2ncnn2n1)CN1CCC(OC(c2ccccc2)c2ccccc2)CC1 (stereo not drawn) [Example 16A, 1-[4-(Diphenylmethoxy)piperidino]-3-([1,2,4]triazolo[1,5-b]pyridazin-6-yloxy)-2-propanol] | 133 to 135 |
| O=C(CCN1CCN(C(c2ccccc2)c2ccccc2)CC1)Nc1ccc2ncnn2n1 [Example 19A, 3-[4-(Diphenylmethyl)-1-piperazinyl]-N-([1,2,4]triazolo[1,5-b]pyridazin-6-yl)propionamide] | 176 to 177 |
| Cc1nc2ccc(NCCCN3CCC(OC(c4ccccc4)c4ccccc4)CC3)nn2n1 [Example 20A, 6-[3-[4-(Diphenylmethoxy)piperidino]propylamino]-2-methyl[1,2,4]triazolo[1,5-b]pyridazine] | 119 to 120 |
| Cc1nc2ccc(OCCCN3CCC(OC(c4ccccc4)c4ccccc4)CC3)nn2n1 [Example 21A, 6-[3-[4-(Diphenylmethoxy)piperidino]propoxy]-2-methyl[1,2,4]triazolo[1,5-b]pyridazine] | 134 to 136 |
| O=C(CN1CCC(OC(c2ccccc2)c2ccccc2)CC1)Nc1ccc2ncnn2n1 [Example 23A, 2-[4-(Diphenylmethoxy)piperidino]-N-([1,2,4]triazolo[1,5-b]pyridazin-6-yl)acetamide] | 158 to 160 |
| O=C(CN1CCN(C(c2ccccc2)c2ccccc2)CC1)Nc1ccc2ncnn2n1 [Example 24A, 2-[4-(Diphenylmethyl)-1-piperazinyl]-N-([1,2,4]triazolo[1,5-b]pyridazin-6-yl)acetamide] | 203 to 204 |

| Compound | melting point [°C] |
| --- | --- |
| O=C(OCCOc1ccc2ncnn2n1)N1CCC(OC(c2ccccc2)c2ccccc2)CC1 [Example 25A, 6-[2-[4-(Diphenylmethoxy)piperidinocarbonyloxy]ethoxy][1,2,4]triazolo[1,5-b]pyridazine] | 75 to 76 |
| O=C(OCCOc1ccc2ncnn2n1)N1CCN(C(c2ccccc2)c2ccccc2)CC1 [Example 26A, 6-[2-[4-(Diphenylmethyl)-1-piperazinyl-carbonyloxy]ethoxy][1,2,4]triazolo[1,5-b]pyridazine] | 157 to 159 |
| O=C(OCCCOc1ccc2ncnn2n1)C1CC(OC(c2ccccc2)c2ccccc2)CCN1 (stereo not drawn) [Example 27A, 6-[3-[4-(Diphenylmethoxy)piperidino-carbonyloxy]propoxy][1,2,4]triazolo[1,5-b]pyridazine] | 119 to 120 |
| c1ccc(-c2nc3ccc(NCCCN4CCC(OC(c5ccccc5)c5ccccc5)CC4)nn3n2)cc1 [Example 32A, 6-[3-[4-(Diphenylmethoxy)piperidino]propylamino]-2-phenyl[1,2,4]triazolo[1,5-b]pyridazine] | 170 to 172 |
| COC(=O)c1nc2ccc(NCCCN3CCC(OC(c4ccccc4)c4ccccc4)CC3)nn2n1 [Example 36A, Methyl 6-[3-[4-(Diphenylmethoxy)piperidino]propylamino][1,2,4]triazolo[1,5-b]pyridazine-2-carboxylate] | 93 to 96 |
| c1ccc(C(c2ccccc2)N2CCN(CCCCCCNc3ccc4ncnn4n3)CC2)cc1 [Example 37A, 6-[6-[4-(Diphenylmethyl)-1-piperazinyl]hexylamino][1,2,4]triazolo[1,5-b]pyridazine] | 130 to 132 |
| COc1cn2nc(OCCCN3CCC(OC(c4ccccc4)c4ccccc4)CC3)ccc2n1 [Example 41A, 6-[3-[4-(Diphenylmethoxy)piperidino]propoxy]-2-methoxyimidazo[1,2-b]pyridazine] | 133 to 135 |
| COc1cn2nc(OCCCN3CCN(C(c4ccccc4)c4ccccc4)CC3)ccc2n1 [Example 42A, 6-[3-[4-(Diphenylmethyl)-1-piperazinyl]propoxy]-2-methoxyimidazo[1,2-b]pyridazine] | 144 to 146 |
| CC(C)(C(=O)O)c1cn2nc(NCCCN3CCC(OC(c4ccccc4)c4ccccc4)CC3)ccc2n1 [Example 43A, 2-[6-[3-[4-(Diphenylmethoxy)piperidino]propylamino]imidazo[1,2-b]pyridazin-2-yl]-2-methylpropionic Acid] | 205 to 206 |
| Cc1cc2ncnn2nc1OCCOCCN1CCN(C(c2ccccc2)c2ccccc2)CC1 [Example 47A, 6-[2-[2-[4-(Diphenylmethyl)-1-piperazinyl]ethoxy]ethoxy]-7-methyl[1,2,4]triazolo[1,5-b]pyridazine] | 71 to 72 |
| Cc1cc2ncnn2nc1OCCOCCN1CCC(OC(c2ccccc2)c2ccccc2)CC1 [Example 53A, 6-[2-[2-[4-(Diphenylmethoxy)piperidino]ethoxy]ethoxy]-7-methyl[1,2,4]triazolo[1,5-b]pyridazine] | 80 to 82 |
| CC(C)(C)c1cc2ncnn2nc1SCCOCCN1CCN(C(c2ccccc2)c2ccccc2)CC1 [Example 60A, 6-[2-[2-[4-(Diphenylmethyl)-1-piperazinyl]ethoxy]ethylthio]-7-t-butyl[1,2,4]triazolo[1,5-b]pyridazine] | 106 to 108 |
| CC(C)c1cc2ncnn2nc1OCCOCCN1CCN(C(c2ccccc2)c2ccccc2)CC1 [Example 61A, 6-[2-[2-[4-(Diphenylmethyl)-1-piperazinyl]ethoxy]ethoxy]-7-isopropyl[1,2,4]triazolo[1,5-b]pyridazine] | 119 to 120 |
| CCOC(=O)CNC(=O)c1cn2nc(NCCCN3CCC(OC(c4ccccc4)c4ccccc4)CC3)ccc2n1 [Example 70A, N-[6-[3-[4-(Diphenylmethoxy)piperidino]propylamino]imidazo[1,2-b]pyridazine-2-carbonyl]glycine Ethyl Ester] | 172 to 174 |
| O=C(O)CNC(=O)c1cn2nc(NCCCN3CCC(OC(c4ccccc4)c4ccccc4)CC3)ccc2n1 [Example 72A, N-[6-[3-[4-(Diphenylmethoxy)piperidino]propylamino]imidazo[1,2-b]pyridazine-2-carbonyl]glycine] | 171 |
| CC(C)(CO)c1cn2nc(NCCCN3CCC(OC(c4ccccc4)c4ccccc4)CC3)ccc2n1 [Example 75A, 2-[6-[3-[4-(Diphenylmethoxy)piperidino]propylamino]imidazo[1,2-b]pyridazin-2-yl)-2-methylpropanol] | 105 to 108 |
| CC(C)(C(=O)O)c1cn2nc(NCCN3CCC(OC(c4ccccc4)c4ccccc4)CC3)ccc2n1 [Example 79A, 2-[6-[2-[4-(Diphenylmethoxy)piperidino]ethylamino]imidazo[1,2-b]pyridazin-2-yl]-2-methylpropionic Acid] | 194 to 198 |
| CC(C)(C(=O)O)c1nc2ccc(NCCCN3CCN(C(c4ccccc4)c4ccccc4)CC3)nn2c1Cl [Example 85A, 2-[3-Chloro-6-[3-[4-(diphenylmethyl)-1-piperazinyl]propylamino]imidazo[1,2-b]pyridazin-2-yl]-2-methylpropionic Acid] | 184 to 186 |
